Data published in US20120053076A1, “METHODS FOR IDENTIFICATION” (Cambridge Enterprise Limited, priority 2009, published 2012).
Like-named read-outs stand apart in the source and are kept apart here. No end group written: not given here.

How the values were obtained:
sstr2 = target: T1, sstr2 (Homo sapiens, UniProt P30874); assay: Equilibrium binding of [3H]-BN83250 to THP-1 cells
T1 construct: with 1×10^6 THP-1 cells in Gey's Balanced Salt Solution; endogenous in cells; host or cells: THP-1 cells (whole cells, 4° C.)
Experimental: Methods: [^3H]-BN83250 was synthesesized from (S,E)-3-(2′,2′-dimethyldodec-4′-enoylamino)-caprolactam by catalytic hydrogenation using tritium gas over a palladium catalyst (CRB Ltd, Cleveland, UK), yielding the tritiated product at a concentration of […] in ethanol with a specific activity of 220 Ci/mmol. The (S,E)-3-(2′,2′-dimethyldodec-4′-enoylamino)-caprolactam was prepared as follows: (S,S)-3-amino-caprolactam hydro-pyrrolidine-5-carboxylate (10 mmol) and Na2CO3 (30 mmol) in water (30 ml) were added to a solution of 2,2-dimethyl-dodec-4-enoyl chloride (10 mmol) in dichloromethane (30 ml) at ambient temperature and the reaction was stirred for 12 hours. The organic layer was then separated and the aqueous phase was extracted with additional dichloromethane (2×25 ml). The combined organic layers were dried over Na2CO3 and reduced in vacuo. The residue was purified by silica column chromatography (1:1 EtOAc:hexanes to EtOAc) to give […]-3-(2′,2′-dimethyl-dodec-4′-enoyl)amino-caprolactam as a colourless oil (2.12 g, 63%). The radiolabelled compound was stored in the dark at 4° C. until required. Prior to use the specific activity was adjusted by addition of unlabelled BN83250.
For the analysis of binding, individual reactions were set up (in triplicate for each condition), with 1×10^6 THP-1 cells in Gey's Balanced Salt Solution, 10 nM [^3H]-BN83250 (at 50 Ci/mmol) and various concentrations of (S)-3(2′2′-dimethylpropionoylamino)-tetrahydropyridin-2-one (10 pM to 10 μM). Excess (100 μM) unlabelled BN83250 was used to determine the level of non-specific binding. After 2 hours at 4° C. (conditions previously shown to achieve equilibrium binding, and which prevent uptake of the radioligand that would result in an over-estimate of binding) excess label was washed away by centrifugation (3 washes with 5 ml of Gey's Balanced Salt Solution) and the bound radioactivity was determined by scintillation counting of the solubilised cell pellet.

THP-1 cells = assay: MCP-1 induced THP-1 cell migration, Transwell assay; assay type: cell-based, human; settings: for Human chemokine-induced THP-1 migration assay Max effect: Table 3; for Max effect (maximum inhibition): Table 2, highest dose tested (1-10 μM); for Maximal inhibition of leukocyte migration: maximal / very high doses, Example 6
Experimental: Leukocyte migration was measured using the 96-well format micro Transwell® assay system from Neuroprobe (Gaithersburg, Md., USA). In principle, this assay consists of two chambers separated by a porous membrane. The chemoattractant is placed in the lower compartment and the cells are placed in the upper compartment.
The method was performed essentially as previously described (Reckless & Grainger (1999) Biochem. J. 340:803-11).
First, the cell suspension to be placed in the upper compartment was prepared. The THP-1 cells were pelleted by centrifugation (770×g; 4 mins) and washed with Geys Balanced Salt Solution with 1 mg/ml BSA (GBSS+BSA). This wash was then repeated, and the cells re-pelleted before being resuspended in a small volume of GBSS+BSA for counting, for example using a standard haemocytometer.
The volume of GBSS+BSA was then adjusted depending on the number of cells present so that the cells were at final density of 4.45×10^6 cells per ml of GBSS+BSA. This ensured that there were 100,000 THP-1 cells in each 25 μl of the solution to be placed in the upper chamber of the plate.
The suspension of THP-1 cells at 4.45×10^6 cells/ml was divided into three pots. […] To the second pot, the BSCI was added at the same concentration as in the first pot, but additionally the sstr2 antagonist was also added (for example BIM 23454 [Tulipano et al. (2002) 143:1218-24] or BIM 23627 were added at 66 nM final concentration from a stock solution in GBSS). To the third pot, GBSS+BSA plus vehicle as appropriate was added so that the volumes in three pots are equal, acting as a control.
Next, the chemoattractant solution to be placed in the lower compartment was prepared. MCP-1 was diluted in GBSS+BSA to give a final concentration of 25 ng/ml (after all additions). Note that, as recommended by Frow et al (Med. Res. Rev. 24:276-98) this is the concentration of MCP-1 which induces maximal migration in this system. This solution was divided into three pots, as for the cell suspension. To one pot, the BSCI was added to the same final concentration as was added to the cell suspension, in the second pot the BSCI and the sstr2 antagonist were both added at the same concentration as previously added to the cell suspension, while to the remaining pot GBSS+BSA plus vehicle as appropriate was added so that the volumes in the three pots were equal.
Once the chemoattractant solutions for the lower wells and cell solutions for the upper chambers were prepared, the migration chamber was assembled. 29 μl of the appropriate chemoattractant solution was placed into the lower well of the chamber. Assays were performed with at least triplicate determinations of each condition. Once all the lower chambers were filled, the porous membrane was applied to the chamber in accordance with the manufacturer's instructions. Finally, 25 μl of the appropriate cell solution was applied to each upper chamber. A plastic lid was placed over the entire apparatus to prevent evaporation.
The assembled chamber was incubated at 37° C., 5% CO2, for 2 hours.
At the end of the incubation, the liquid cell suspension was gently removed from the upper chamber, 20 μl of ice-cold 20 mM EDTA in PBS was added to the upper chamber, and the apparatus was incubated at 4° C. for 15 mins. This procedure caused any cells adhering to the underside of the membrane to fall into the lower chamber.
After this incubation the filter was carefully flushed with GBSS+BSA to wash off the EDTA, and then the filter was removed.
The number of cells migrated into the lower chamber under each condition can then be determined by a number of methods, including direct counting, labelling with fluorescent or radioactive markers or through the use of a vital dye. Typically, we utilised the vital dye MTT.

fetal rat pituicytes = assay: Rat pituicyte GH suppression assay; assay type: cell-based; settings: for EC50 / Rat pituicyte GH suppression assay Max effect: Table 3; for EC50: read-out: Rat pituicyte GH suppression assay ED50; for Rat pituicyte GH suppression assay Max effect: suppression compared to vehicle
From the text: (§1) Two different assays for “classical” sstr2 functions were adopted: (1) cultured foetal rat pituitary cells secreted growth hormone which is inhibited by sstr2 agonists in a dose-dependent fashion and (2) selected glucose-sensitive sub-clones of the human Panc-1 cell line secrete insulin which is inhibited by sstr2 agonists in a dose-dependent fashion.
Methods: Cultures of fetal rat pituicytes were established exactly as previously described (Murray et al. (2004) J. Clin. Endocrinol. Metab. 89:3027-32) by enzymatic dispersion. After 48 hrs in low glucose DMEM plus 10% FCS, cells in 48 well plates (5×10^4 cells per well) were washed for 4 hrs in serum-free DMEM and then incubated with test agents at various concentrations for a further 24 hrs in serum-free DMEM. At the end of this period, the conditioned medium was harvested, any cell debris removed by centrifugation and assayed for GH using a commercially available ELISA (Linco; cat# EZRMGH-45K) in accordance with the manufacturer's instructions.
(§2) Results were reported as the mean±SD, expressed as the fold change from cells in the presence of vehicle only.

[1] = tested on: rat peripheral blood leukocytes; assay: Rat chemokine-induced PBMC migration assay; assay type: cell-based; settings: Table 3
Panc-2H4 cells = assay: Human Panc-2H4 insulin suppression assay; assay type: cell-based; settings: for Human Panc-2H4 insulin suppression assay Max effect: suppression compared to vehicle
From the text: as §1
Glucose-sensitive sub-clones of the human Panc-1, a cell line derived from a pleiomorphic epithelioid carcinoma of the exocrine pancreas, were obtained essentially as described by Hamil et al. (2008) Biomed. Sci. Instrum. 44:441-6. Briefly, Panc-1 cells were subcultured in 24 well plates, and the medium was supplemented with an additional 5% glucose. […] The resulting sub-lines were then tested for glucose sensitivity by preparing wells of a 96-well plate (5×10^4 cells per well) which were then exposed to cultured medium containing a range of glucose concentrations (low glucose DMEM, DMEM, DMEM+1% glucose, DMEM+2.5% glucose and DMEM+5% glucose). After 24 hrs incubation, the conditioned medium was collected and assayed for insulin secretion by ELISA (Linco; cat# EZHI-14K) in accordance with the manufacturer's instructions.
Further 96 well plates were prepared using Panc-2H4 (5×10^4 cells per well) in DMEM. After 24 hrs, the medium was switched to DMEM+5% glucose containing various test agents at various concentrations (triplicate wells per condition). After a further 24 hrs, the conditioned medium was harvested and the concentration of insulin was determined by ELISA as described above.
as §2

5HT2a = settings: rodents; cited from earlier work
platelets = assay: ADP-mediated platelet activation/aggregation; assay type: cell-based
Jurkat T cells = assay: SDF-1α induced migration of parental Jurkat T cells; assay type: cell-based, human
Experimental: Results: The level of the SDF-1α, receptor CXCR4 was similar on Jurkat-D3B and the parental Jurkat T cell line. Furthermore, the Jurkat-D3B cells responded to SDF-1α in a Transwell® chemotaxis assay (see Example 1 for the methodology employed) over a similar concentration range to the parental cell line.
Jurkat T cells and Jurkat-D3B cells were induced to migrate in response to 100 ng/ml SDF-1α (R&D systems; the concentration of SDF-1α which induced maximal cell migration in both lines). The BSCI BN83250 was then added at various concentrations between 0 nM and 1000 nM (each in triplicate) to both the upper and lower compartments (at the same concentration in each compartment, so as not to create a gradient of BSCI concentration). DMSO (1% final concentration) was used as the vehicle, and was present in all wells at equal concentration.

[2] = Table 3, read-out: Human Panc-2H4 insulin suppression assay ED50

T1 sequence (P30874 whole entry): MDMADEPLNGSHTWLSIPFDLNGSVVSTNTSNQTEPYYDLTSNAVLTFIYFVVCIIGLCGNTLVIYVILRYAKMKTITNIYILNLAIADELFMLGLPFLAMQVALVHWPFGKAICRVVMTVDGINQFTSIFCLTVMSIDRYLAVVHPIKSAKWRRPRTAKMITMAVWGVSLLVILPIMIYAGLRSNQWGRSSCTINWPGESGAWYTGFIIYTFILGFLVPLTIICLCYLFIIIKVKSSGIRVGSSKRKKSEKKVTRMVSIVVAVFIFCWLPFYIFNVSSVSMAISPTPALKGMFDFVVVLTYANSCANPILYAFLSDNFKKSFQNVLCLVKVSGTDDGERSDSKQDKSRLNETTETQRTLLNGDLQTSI

For `CC1(C(=O)N[C@H]2CCCCNC2=O)CCCCC1` [(S)-3-(1′-methylcyclohexyl-1′-carbonylamino)-caprolactam], the “Competition with BN83250 binding to sstr2, in words” value (sstr2) was “compete with BN83250 binding to sstr2 to a similar extent”.
In the case of `O=C1NCCCC[C@@H]1NC(=O)C12CC3CC(CC(C3)C1)C2` [BN83470, (S)-3-(admantane-1′-carbonylamino)-caprolactam], the “Human chemokine-induced THP-1 migration assay Max effect” value (THP-1 cells) is reported as 100%, the “Inhibition of GH release, in words” value (fetal rat pituicytes) is reported as “inhibited GH release only at much higher concentrations” and the EC50 (fetal rat pituicytes) is reported as 270 nM. For the same compound, the “Rat pituicyte GH suppression assay Max effect” value (fetal rat pituicytes) was 56%, the “Competition with BN83250 binding to sstr2, in words” value (sstr2) was “compete with BN83250 binding to sstr2 to a similar extent” and the “Rat chemokine-induced PBMC migration assay Max effect” value [1] was 100%. The EC50 (Panc-2H4 cells; [2]) was greater than 1000 nM and the “Human Panc-2H4 insulin suppression assay Max effect” value (Panc-2H4 cells; Table 3) was less than 10%.
For `C[C@@H](N)Cc1c2ccoc2c(Br)c2ccoc12` [Bromo-DragonFLY], the “Head twitching by classical 5HT2a agonists” value (“Head twitching” for short) (5HT2a) is given as “induce this classical effect”.
For `C[C@@H](c1c[nH]c2ccccc12)[C@@H](NC(=O)N1CCC(n2c(=O)[nH]c3ccccc32)CC1)C(=O)NC[C@@H]1CCC[C@H](CN)C1` [L-779,976], the “Human chemokine-induced THP-1 migration assay Max effect” value (THP-1 cells) was 65%, the “Chemokine-induced THP-1 cell migration assay (“BSCI” target) Max Effect” value (THP-1 cells; Table 4) was 65% and the “Chemokine-induced THP-1 cell migration assay (“BSCI” target) Max Effect” value (THP-1 cells; Table 5) was 65%. The EC50 (fetal rat pituicytes) was 2.9 nM, the “Rat pituicyte GH suppression assay Max effect” value (fetal rat pituicytes) was 55% and the EC50 (Panc-2H4 cells; [2]) was 17 nM. The “Human Panc-2H4 insulin suppression assay Max effect” value (Panc-2H4 cells; Table 3) was 40%, the “Panc-2H4 insulin suppression assay (“classical” target) Max Effect” value (Panc-2H4 cells; Table 4) was 40% and the EC50 (Panc-2H4 cells; Table 4, 0.01 nM to 1,000 nM, DMSO 1%, read-out: Panc-2H4 insulin suppression assay (“classical” target) ED50) was 17 nM. For the same compound, the “Panc-2H4 insulin suppression assay (“classical” target) Max Effect” value (Panc-2H4 cells; Table 5) was 40% and the EC50 (Panc-2H4 cells; Table 5, read-out: Panc-2H4 insulin suppression assay (“classical” target) ED50) was 17 nM.
In the case of `CCN(CC)C(=O)[C@@H]1C=C2c3cccc4[nH]cc(c34)C[C@H]2N(C)C1` [LSD], the “Head twitching” value (5HT2a) is listed as “induce this classical effect”.
In the case of `[3H]C(CCCCCCC)C([3H])CC(C)(C)C(=O)N[C@H]1CCCCNC1=O` (stereo partly drawn) [[^3H]-BN83250, 4′,5′-^3[H] (S)-3-(2′,2′-dimethyldodecanoyl)amino-caprolactam], the “Binding sites per cell” value (sstr2; THP-1 cells) is reported as 100,000 to 200,000 sites per cell and the Kd (sstr2; THP-1 cells, 2 hours at 4° C., read-out: Affinity (Scatchard analysis)) is reported as roughly 80 nM.
For `Clc1cccc(Cl)c1N=C1NCCN1` [clonidine], the “Effect on ADP-mediated platelet activation/aggregation” value (platelets) was “significant potentiate ADP-mediated platelet aggregation”.
For `CC(C)C[C@H]1C(=O)N2CCC[C@H]2[C@]2(O)O[C@](NC(=O)[C@@H]3C[C@@H]4c5cccc6[nH]cc(c56)C[C@H]4N(C)C3)(C(C)C)C(=O)N12` [dihydroergocryptine], the “Effect on ADP-mediated platelet activation/aggregation” value (platelets) was “significant potentiate ADP-mediated platelet aggregation”.
For `COc1cc(CCN)cc(OC)c1OC` [mescaline], the “Head twitching” value (5HT2a) is listed as “induce this classical effect”.
For `CN(C)CCc1c[nH]c2cccc(O)c12` [psilocin], the “Head twitching” value (5HT2a) is given as “induce this classical effect”.
For `COC(=O)[C@@H]1[C@H]2C[C@H]3c4[nH]c5ccccc5c4CCN3C[C@@H]2CC[C@@H]1O` [yohimbine], the “Inhibition of SDF-1α induced migration of Jurkat T cells, in words” value (Jurkat T cells) was “neither agent inhibits” and the “Effect on ADP-mediated platelet activation/aggregation” value (platelets) was “significant potentiate ADP-mediated platelet aggregation”.
With “Cortistatin: more recently described somatostatin analog (DRMPCRNFFWKTFSSCK; ends and bridges not checked; cysteine pairing not given here; UniProt O00230 89-105, looked up)” the “Max effect (maximum inhibition)” value (THP-1 cells) was 40-60% and the “Maximal inhibition of leukocyte migration” value (THP-1 cells) was roughly 50%.
For “Sst-28: alternatively processed sst28 natural ligand”, the “Max effect (maximum inhibition)” value (THP-1 cells) was 40-60% and the “Maximal inhibition of leukocyte migration” value (THP-1 cells) was 40-60%.
